“And” between values parts separate entries of the source, which are not always exact repeats. Equal values may be shown once. Read-outs that look alike come from different tables or passages of the source.
What was measured:
[1] = system: CRF01_AE CM244 Env LM+HS on HEK293T cells; format: binding; settings: temsavir 10 µM, listed as TMR
[2] = system: HIV-1 pseudovirus bearing clade B YU2 Env H105Q/I108V; format: cell-based
[3] = system: HIV-1JR-FL Env S375M on HEK293T cells; format: binding; settings: JRFL S375M; temsavir 10 µM; listed as TMR
[4] = system: CRF01_AE CM244 Env WT on HEK293T cells; format: binding; settings: temsavir 10 µM, listed as TMR
[5] = system: clade B YU2 Env LM on HEK293T cells; format: binding; settings: temsavir 10 µM, listed as TMR
[6] = system: HIV-1JR-FL Env S375W on HEK293T cells; format: binding; settings: JRFL S375W; temsavir 10 µM; listed as TMR
[7] = system: HIV-1 pseudovirus bearing EnvJR-FL S375N; test: organism not typed; format: cell-based; settings: for Relative infectivity (%): JRFL S375N
[8] = system: HIV-1 pseudovirus bearing clade B YU2 Env WT; test: organism not typed; format: cell-based; settings: for Relative infectivity (%): YU2 WT
[9] = system: HIV-1 pseudovirus bearing clade B YU2 Env S375T; test: organism not typed; format: cell-based; settings: for Relative infectivity (%): YU2 S375T
[10] = system: HIV-1 pseudovirus bearing CRF01_AE 92TH023 Env LM; test: organism not typed; format: cell-based; settings: for Relative infectivity (%): 92TH023 LM
[11] = system: HIV-1 pseudovirus bearing clade B YU2 Env D474N/M475I/R476K; format: cell-based
[12] = system: HIV-1 pseudovirus bearing EnvJR-FL S375Y; test: organism not typed; format: cell-based; settings: for Relative infectivity (%): JRFL S375Y
[13] = system: HIV-1 pseudovirus bearing clade B YU2 Env LM+SH; test: organism not typed; format: cell-based; settings: for Relative infectivity (%): YU2 LM+SH
[14] = system: HIV-1 pseudovirus bearing CRF01_AE CM244 Env WT; test: organism not typed; format: cell-based; settings: for Relative infectivity (%): CM244 WT
[15] = system: clade B YU2 Env LMST on HEK293T cells; format: binding; settings: temsavir 10 µM, listed as TMR
[16] = system: HIV-1 pseudovirus bearing CRF01_AE 92TH023 Env LMHT; test: organism not typed; format: cell-based; settings: for Relative infectivity (%): 92TH023 LMHT
[17] = system: HIV-1JR-FL Env S375H on HEK293T cells; format: binding; settings: JRFL S375H; temsavir 10 µM; listed as TMR
[18] = system: CRF01_AE 92TH023 Env H375T on HEK293T cells; format: binding; settings: 92TH023 H375T; temsavir 10 µM; listed as TMR
[19] = system: HIV-1 pseudovirus bearing EnvJR-FL WT; test: organism not typed; format: cell-based; settings: for Relative infectivity (%): JRFL WT
[20] = system: HIV-1JR-FL Env S375T on HEK293T cells; format: binding; settings: JRFL S375T; temsavir 10 µM; listed as TMR
[21] = system: HIV-1JR-FL Env WT on HEK293T cells; format: binding; settings: JRFL WT; temsavir 10 µM; listed as TMR
[22] = system: HIV-1 pseudovirus bearing CRF01_AE CM244 Env LMHS; test: organism not typed; format: cell-based; settings: for Relative infectivity (%): CM244 LMHS
HIV-1 Env with Ile475 = system: HIV-1 Env with Ile475; design: method as in PMID 28825711; settings: Ile475 substitution; cited from earlier work
[23] = system: HIV-1 pseudovirus bearing EnvJR-FL S375H; test: organism not typed; format: cell-based; settings: for Relative infectivity (%): JRFL S375H
[24] = system: clade B YU2 Env LMSH on HEK293T cells; format: binding; settings: temsavir 10 µM, listed as TMR

COc1cnc(-n2cnc(C)n2)c2[nH]cc(C(=O)C(=O)N3CCN(C(=O)c4ccccc4)CC3)c12 [Temsavir, temsavir]
sCD4 binding (+TMR) - Fold over DMSO [1]: 0.6661 and 0.4581 and 0.6625 | Relative infectivity (%) ([2]; Temsavir 5 nM): 1.06% and 2.62% and 1.23% | Relative infectivity (%) ([2]; Temsavir 10 nM): 1.04% and 2.29% and 1.51% | Relative infectivity (%) ([2]; Temsavir 50 nM): 0.98% and 2.22% and 1.35% | Relative infectivity (%) ([2]; Temsavir 100 nM): 1.01% and 5.2% and 2.05% | sCD4 binding (+TMR) - Fold over DMSO [3]: 0.2258 and 0.2038 and 0.2793 | sCD4 binding (+TMR) - Fold over DMSO [4]: 1.042 and 0.9403 and 0.9549 | sCD4 binding (+TMR) - Fold over DMSO [5]: 0.8112 and 0.8641 and 1.018 | sCD4 binding (+TMR) - Fold over DMSO [6]: 1.038 and 0.9906 and 0.8801 | IC50 ([7]; Cf2Th-CD4/CCR5): 1.22 nM | Relative infectivity (%) ([7]; Temsavir 0.1 nM): 85.6384% and 86.7177% and 89.7623% | Relative infectivity (%) ([7]; Temsavir 0.5 nM): 73.4943% and 55.2266% and 75.8961% | Relative infectivity (%) ([7]; Temsavir 25 nM): 4.928% and 3.547% and 2.352% and 8.953% | Relative infectivity (%) ([7]; Temsavir 100 nM): 2.171% and 1.397% and 0.7541% and 3.487% | IC50 ([8]; Cf2Th-CD4/CCR5): 0.68 nM | Relative infectivity (%) ([8]; Temsavir 1 nM, Fig 2f): 27.4498% and 23.3742% and 28.1647% | Relative infectivity (%) ([8]; Temsavir 2 nM, Fig S1): 66.79% and 41.21% and 35.57% | Relative infectivity (%) ([8]; Temsavir 5 nM, Fig 2f): 1.267% and 2.642% and 1.583% | Relative infectivity (%) ([8]; Temsavir 5 nM, Fig S1): 6.29% and 2.61% and 2.85% | Relative infectivity (%) ([8]; Temsavir 10 nM, Fig 2f): 0.2419% and 0.2962% and 0.3923% | Relative infectivity (%) ([8]; Temsavir 10 nM, Fig S1): 2.59% and 2.79% and 2.69% | Relative infectivity (%) ([8]; Temsavir 50 nM, Fig 2f): 0.2461% and 0.2675% and 0.3334% | Relative infectivity (%) ([8]; Temsavir 50 nM, Fig S1): 2.66% and 2.72% and 2.93% | Relative infectivity (%) ([8]; Temsavir 100 nM, Fig 2f): 0.2542% and 0.2474% and 0.3435% | Relative infectivity (%) ([8]; Temsavir 100 nM, Fig S1): 2.55% and 3.03% and 2.93% | IC50 ([9]; Cf2Th-CD4/CCR5): 0.73 nM | Relative infectivity (%) ([9]; Temsavir 1 nM): 32.779% and 22.5844% and 35.0676% | Relative infectivity (%) ([9]; Temsavir 5 nM): 2.479% and 1.401% and 1.77% | Relative infectivity (%) ([9]; Temsavir 10 nM): 0.4727% and 0.2789% and 0.1619% | Relative infectivity (%) ([9]; Temsavir 50 nM): 0.1346% and 0.1101% and 0.1511% | Relative infectivity (%) ([9]; Temsavir 100 nM): 0.1098% and 0.1253% and 0.1727% | Relative infectivity (%) ([10]; Temsavir 1 nM): 82.8885% and 105.829% and 81.5038% | Relative infectivity (%) ([10]; Temsavir 5 nM): 63.4532% and 71.1451% and 85.9246% | Relative infectivity (%) ([10]; Temsavir 10 nM): 66.9458% and 79.651% and 87.1271% | Relative infectivity (%) ([10]; Temsavir 50 nM): 76.0092% and 99.9867% and 85.6288% | IC50 ([10]; Cf2Th-CD4/CCR5): > 50 nM | Relative infectivity (%) ([11]; Temsavir 5 nM): 61.12% and 58.84% and 77.63% | Relative infectivity (%) ([11]; Temsavir 100 nM): 18.08% and 29.17% and 19.26% | IC50 ([12]; Cf2Th-CD4/CCR5): > 100 nM | Relative infectivity (%) ([12]; Temsavir 0.1 nM): 95.0549% and 100.21% and 92.5783% | Relative infectivity (%) ([12]; Temsavir 0.5 nM): 93.6966% and 92.3523% and 97.9897% | Relative infectivity (%) ([12]; Temsavir 1 nM): 103.494% and 95.9187% and 99.1671% | Relative infectivity (%) ([12]; Temsavir 5 nM): 82.1418% and 84.655% and 82.6307% | IC50 ([13]; Cf2Th-CD4/CCR5): > 100 nM | Relative infectivity (%) ([13]; Temsavir 1 nM): 101.627% and 98.3187% and 88.9144% | Relative infectivity (%) ([13]; Temsavir 5 nM): 105.436% and 97.7235% and 87.2207% | Relative infectivity (%) ([13]; Temsavir 10 nM): 114.432% and 105.33% and 87.5665% | Relative infectivity (%) ([13]; Temsavir 50 nM): 115.171% and 108.587% and 70.9415% | Relative infectivity (%) ([13]; Temsavir 100 nM): 115.039% and 106.712% and 94.0587% | Relative infectivity (%) ([14]; Temsavir 1 nM): 91.0915% and 114.42% and 104.549% | Relative infectivity (%) ([14]; Temsavir 5 nM): 80.9718% and 103.03% and 93.7921% | Relative infectivity (%) ([14]; Temsavir 10 nM): 79.7783% and 110.299% and 108.245% | Relative infectivity (%) ([14]; Temsavir 50 nM): 78.0773% and 106.103% and 90.5088% | IC50 ([14]; Cf2Th-CD4/CCR5): > 50 nM | sCD4 binding (+TMR) - Fold over DMSO [15]: 0.9452 and 1.1963 and 0.9128 | Relative infectivity (%) ([16]; Temsavir 1 nM): 42.8978% and 67.1593% and 55.5357% | Relative infectivity (%) ([16]; Temsavir 5 nM): 44.0227% and 46.691% and 23.9805% | Relative infectivity (%) ([16]; Temsavir 50 nM): 14.3245% and 26.4308% and 14.3408% | IC50 ([16]; Cf2Th-CD4/CCR5): 1.31 nM | sCD4 binding (+TMR) - Fold over DMSO [17]: 1.158 and 1.01 and 1.118 | sCD4 binding (+TMR) - Fold over DMSO [18]: 0.7474 and 0.9648 and 0.9745 | IC50 ([19]; Cf2Th-CD4/CCR5): 0.36 nM | Relative infectivity (%) ([19]; Temsavir 0.1 nM): 88.4413% and 81.9041% and 67.8312% | Relative infectivity (%) ([19]; Temsavir 5 nM): 0.09027% and 0.782% and 0.1663% | Relative infectivity (%) ([19]; Temsavir 25 nM): 0.07266% and 0.1285% and 0.09925% and 0.3863% | Relative infectivity (%) ([19]; Temsavir 100 nM): 0.1307% and 0.3086% and 0.1992% and 0.5674% | sCD4 binding (+TMR) - Fold over DMSO [20]: 0.1797 and 0.1688 and 0.2064 | sCD4 binding (+TMR) - Fold over DMSO [21]: 0.09994 and 0.08955 and 0.1163 | Relative infectivity (%) ([22]; Temsavir 5 nM): 5.229% and 3.403% and 2.611% | Relative infectivity (%) ([22]; Temsavir 10 nM): 1.16% and 4.177% and 2.605% | Relative infectivity (%) ([22]; Temsavir 50 nM): 0.3118% and 0.2016% and 0.39% | IC50 ([22]; Cf2Th-CD4/CCR5): 0.7 nM | fold reduction in temsavir activity (HIV-1 Env with Ile475): ~ 90 fold | IC50 ([23]; Cf2Th-CD4/CCR5): > 100 nM | Relative infectivity (%) ([23]; Temsavir 0.1 nM): 97.5172% and 99.7027% and 99.1558% | Relative infectivity (%) ([23]; Temsavir 0.5 nM): 94.7921% and 100.166% and 82.7419% | Relative infectivity (%) ([23]; Temsavir 1 nM): 92.4628% and 111.302% and 80.2089% | Relative infectivity (%) ([23]; Temsavir 5 nM): 89.7935% and 91.5252% and 60.6402% | Relative infectivity (%) ([23]; Temsavir 25 nM): 193.211% and 192.383% and 121.78% and 152.325% | Relative infectivity (%) ([23]; Temsavir 100 nM): 67.6822% and 45.331% and 44.6004% and 67.6402% | sCD4 binding (+TMR) - Fold over DMSO [24]: 1.199 and 1.141 and 1.081

Source: PMC10593844, “Structure-function analyses reveal key molecular determinants of HIV-1 CRF01_AE resistance to the entry inhibitor temsavir” (Nature Communications, 2023)
